According to patent US7745393B2, “Minimalist bZIP proteins and uses thereof” (priority 2005, dated 2010):
Entries after “also recorded” stand apart in the source; their conditions may differ.

Tests used:
E-box target, 5′-CACGTG = test: yeast one-hybrid his3 reporter assay (colony growth on SD/-His/-Leu with 3-AT); type: cell-based, Saccharomyces cerevisiae; parameters: key to his3: +: positive; −: negative; conditions: for his3 assay binding/colony growth: 30° C.; for binding to E-box / colony growth in yeast one-hybrid assay: 3-AT concentration not stated; for his3: positive/negative colony growth in yeast cells on plates
Excerpt: A reporter strain was constructed such that the E-box target, 5′-CACGTG, resides upstream of the HIS3 reporter gene. The bHLH/bZIP hybrid was fused to the GAL4 transcriptional activation domain so that if a hybrid binds the E-box, the HIS3 protein will be expressed, thus allowing yeast to survive under conditions of histidine auxotrophy. Four tandem copies of the E-box (as shown in Table 9) were cloned into the pHISi-1 integrating reporter vector (Matchmaker One-Hybrid System, Clontech). After insertion of the E-box insert, the pHISi-1 vector was linearized and incorporated into the yeast genome by homologous recombination to generate Saccharomyces cerevisiae YM4271[pHISi-1/E-box]. To assess background due to the reporter, 3-aminotriazole (3-AT) was used as a competitive inhibitor of the HIS3 protein. Because it is possible that the reporter may be activated by endogenous factors, YM4271[pHISi-1/E-box] was subjected to titration with varying amounts of 3-AT to measure the concentration of 3-AT sufficient for suppression of background growth.
Transformation of the yeast cells was performed by electroporation. Following electroporation, cells were plated on minimal selective medium lacking leucine and histidine with the appropriate amount of 3-AT to suppress background.
(§1) A modified yeast one-hybrid system (Y1H) (Wang MM and Reed RR. 1993, Nature, 364, 121) was used to examine the E-box binding activity of the hybrids in vivo. Two S. cerevisiae reporter strains were constructed: four tandem copies of the E-box were cloned upstream of either the his3 or LacZ reporters. In the his3 assay, the His3 protein is expressed upon binding of our hybrids at E-box, allowing yeast to survive under histidine auxotrophy (FIG. 6). Surviving colonies are visualized on plates with media lacking histidine and in the presence of 3-aminotriazole (3-AT), a competitive inhibitor of His3 that reduces background growth. Yeast was plated on 10-60 mM 3-AT as a qualitative test of binding strength to E-box. Hybrids were also tested by two assays based on the LacZ reporter, which encodes β-galactosidase. (Serebriiskii, I. G. and Golemis, E. A. 2000 Anal. Biochem. 285, 1. The qualitative colony-lift filter assay uses X-gal as substrate for calorimetric visualization of protein-DNA binding (FIG. 7). Positives display vivid blue color. The ortho-nitrophenyl-β-galactoside (ONPG) liquid assay is quantitative (FIG. 8). However, this assay is not sensitive enough to quantify weak interactions accurately, (Mökli, N. and Auerbach, D. 2004 BioTechniques 36, 872) so the far more sensitive colony-lift assay is also typically performed.

E-box [1] = test: LacZ colony-lift filter assay (X-gal); type: cell-based, S. cerevisiae; parameters: key to Colony-lift: +: blue; −: white; conditions: for Colony-lift: LacZ-based X-gal colony-lift filter assay, blue/white screen; for colony-lift filter assay binding (color): X-gal substrate
Excerpt: as §1

E-box [2] = test: LacZ ONPG liquid assay (β-galactosidase); type: cell-based, S. cerevisiae; conditions: for β-galactosidase activity: ONPG assay, FIG. 8, averages of nine to twelve measurements
Excerpt: The measurement of binding of the minimalist bZIP proteins to the target DNA sequence is a LacZ-based quantitative assay using ortho-nitrophenyl-beta-galactoside as calorimetric substrate (ONPG). Minimalist bZIP proteins with ONPG values exceeding 10 beta-galactosidase units are considered to be good binders to the target DNA sequence. Minimalist bZIP proteins with ONPG values below 10 beta-galactosidase units are ideal for selection and evolution,
as §1

E-box [3] = conditions: high-salt conditions, in vitro; cited from earlier work

Molecule | his3 assay binding/colony growth (E-box target, 5′-CACGTG; 10 mM 3-AT) | binding to E-box / colony growth in yeast one-hybrid assay (E-box target, 5′-CACGTG) | his3 (E-box target, 5′-CACGTG) | Colony-lift (E-box [1]) | colony-lift filter assay binding (color) (E-box [1]) | ONPG (E-box [2]; Table 11) | β-galactosidase activity (E-box [2]) | also measured
Max-C/EBP: Max basic region, RIR linker, C/EBP leucine zipper; SEQ ID NO. 52, same sequence as SEQ ID No. 1 (ADKRAHHNALERKRRDHIKDSFHSRIRLEQKVLELTSDNDRLRKRVEQLSRELDTL; fusion protein) | no binding | undetectable | − | − | no binding (clear) | 2.2 ± 0.2 β-galactosidase units |  | his3 assay binding/colony growth (E-box target, 5′-CACGTG; 10 mM 3-AT, listed as Max/C-EBP): Binding undetectable
native Max bHLHZ: native Max bHLHZ (residues 22-113, 92 amino acids), positive control |  |  | + | + |  | 26.4 ± 7.7 β-galactosidase units | 26.4±7.7 | his3 assay binding/colony growth (E-box target, 5′-CACGTG; 20 mM 3-AT): strong binding/colony growth; his3 assay binding/colony growth (E-box target, 5′-CACGTG; 60 mM 3-AT, listed as Max bHLHZ): good colony growth; his3 assay binding/colony growth (E-box target, 5′-CACGTG; 60 mM 3-AT, listed as Native Max bHLHZ): strong binding/colony growth; colony-lift filter assay binding (color) (E-box [1]; listed as Max bHLHZ): intense blue color; also recorded: positive binding (dark blue); colony-lift filter assay binding (color) (E-box [1]; listed as Native Max bHLHZ): positive binding (dark blue); ONPG (E-box [2]; Table 12): 26.41 ± 7.73
Arnt bHLH: Arnt bHLH alone (56 amino acids), literature, Huffman et al. 2001 |  |  |  |  |  |  |  | Kd (E-box [3]): 56.2 ± 11.7 nM
Arnt1-C/EBP: Arnt basic region, RIR linker, C/EBP leucine zipper; SEQ ID No. 7 (protein, fusion protein) KFLRCDDDQMSNDKERFARENHSEIERRRRNKMTAYITERIRLEQKVLELTSDNDRLRKRVEQLSRELDTL | able to bind to the E-box target DNA sequence |  |  |  |  |  |  | 
Arnt-C/EBP: Arnt basic region and a portion of Helix 1 directly fused to the C/EBP zipper (protein, Arnt-C/EBP, Arnt basic region and a portion of Helix 1 directly fused to the C/EBP zipper) DQMSNDKERFARENHSEIERRRRNKMTAYITELSRIRLEQKVLELTSDNDRLRKRVEQLSRELDTL |  | no colony growth |  |  | extremely pale color; also recorded: no binding (clear) |  | 2.9±0.3 | 
